Measured values published in patent publication US20090298878A1, “OXIME COMPOUNDS AND THE USE THEREOF” (priority 2006, published 2009).

Target: T1, N-type calcium channel (NTCC) (Homo sapiens, UniProt Q00975)
T1 construct: host or cells: IMR32 cells differentiated with dibutyryl cAMP and bromodeoxyuridine
Assay: FLIPR calcium mobilization assay for N-type calcium channel (differentiated IMR32 cells)
Assay type: cell-based
Procedure: Cell maintenance and differentiation. Unless noted otherwise, cell culture reagents were purchased from Mediatech of Hemdon, Md. IMR32 cells (American Type Culture Collection, ATCC, Manassas, Va.) were routinely cultured in growth medium consisting of minimum essential medium containing 10% fetal bovine serum (FBS, Hyclone, Logan, Utah), 100 U/mL penicillin, 100 μg/mL streptomycin, 2 mM L-glutamine, 1 mM sodium pyruvate, and 1× MEM non-essential amino acids. 80-90% confluent flasks of cells were differentiated using the following differentiation medium: Growth medium plus 1 mM dibutyryl cyclic AMP (Sigma, St. Louis, Mo.), and 2.5 μM bromodeoxyuridine (Sigma). Cells were differentiated for 8 days by replacing differentiation medium every 2-3 days.
FLIPR Calcium Mobilization Assay for N-type Calcium Channel. One day prior to performing this assay, differentiated IMR32 cells were treated with 1× CellStripper, and seeded on poly-D-lysine-coated 96-well clear-bottom black plates (Becton Dickinson, Franklin Lakes, N.J.) at 200,000 cells/well. On the day of the assay, the cell plates were washed with IMR32 buffer (127 mM NaCl, 1 mM KCl, 2 mM MgCl2, 700 μM NaH2PO4, 5 mM CaCl2, 5 mM NaHCO3, 8 mM HEPES, 10 mM glucose, pH 7.4), then pre-stimulated with KCl and loaded as follows: 0.05 mL of IMR32 buffer, 0.05 mL of each compound tested diluted in IMR32 buffer containing 20 μM nitrendipine (Sigma), and 0.1 mL KCl dissolved in IMR32 buffer, plus Fluo-4 were added (3 μM final concentration, Molecular Probes, Eugene, Oreg.). Final test compound concentrations ranged from about 846 pM to about 17 μM, final nitrendipine concentration was 5 μM, and final KCl concentration was 90 mM. After 1 hour, the cells were washed twice with 0.05 mL of each compound tested in nitrendipine-containing IMR32 buffer (no KCl or Fluo-4), and then replaced with 0.1 mL of each compound tested in nitrendipine-containing IMR32 buffer. Plates were then transferred to a Fluorimetric imaging Plate Reader (FLIPR^96, Molecular Devices, Inc., Sunnyvale, Calif.) for assay. The FLIPR measured basal Fluo-4 fluorescence for 315 seconds (i.e., 5 minutes and 15 seconds), then added 0.1 mL KCl agonist dissolved in IMR32 buffer and measured fluorescence for another 45 seconds. Final test compound concentrations on the cells after FLIPR read ranged from about 846 pM to about 17 μM, final nitrendipine concentration was 5 μM, and final KCl concentration was 90 mM. Data were collected over the entire time course and analyzed using Excel, Graph Pad Prism (version 3.02, Graph Pad, San Diego, Calif.), or an in-house non-linear regression analysis software.

[1] = about 1.0 μM or less, calcium mobilization and/or electrophysiological assay

T1 sequence (Q00975 whole entry): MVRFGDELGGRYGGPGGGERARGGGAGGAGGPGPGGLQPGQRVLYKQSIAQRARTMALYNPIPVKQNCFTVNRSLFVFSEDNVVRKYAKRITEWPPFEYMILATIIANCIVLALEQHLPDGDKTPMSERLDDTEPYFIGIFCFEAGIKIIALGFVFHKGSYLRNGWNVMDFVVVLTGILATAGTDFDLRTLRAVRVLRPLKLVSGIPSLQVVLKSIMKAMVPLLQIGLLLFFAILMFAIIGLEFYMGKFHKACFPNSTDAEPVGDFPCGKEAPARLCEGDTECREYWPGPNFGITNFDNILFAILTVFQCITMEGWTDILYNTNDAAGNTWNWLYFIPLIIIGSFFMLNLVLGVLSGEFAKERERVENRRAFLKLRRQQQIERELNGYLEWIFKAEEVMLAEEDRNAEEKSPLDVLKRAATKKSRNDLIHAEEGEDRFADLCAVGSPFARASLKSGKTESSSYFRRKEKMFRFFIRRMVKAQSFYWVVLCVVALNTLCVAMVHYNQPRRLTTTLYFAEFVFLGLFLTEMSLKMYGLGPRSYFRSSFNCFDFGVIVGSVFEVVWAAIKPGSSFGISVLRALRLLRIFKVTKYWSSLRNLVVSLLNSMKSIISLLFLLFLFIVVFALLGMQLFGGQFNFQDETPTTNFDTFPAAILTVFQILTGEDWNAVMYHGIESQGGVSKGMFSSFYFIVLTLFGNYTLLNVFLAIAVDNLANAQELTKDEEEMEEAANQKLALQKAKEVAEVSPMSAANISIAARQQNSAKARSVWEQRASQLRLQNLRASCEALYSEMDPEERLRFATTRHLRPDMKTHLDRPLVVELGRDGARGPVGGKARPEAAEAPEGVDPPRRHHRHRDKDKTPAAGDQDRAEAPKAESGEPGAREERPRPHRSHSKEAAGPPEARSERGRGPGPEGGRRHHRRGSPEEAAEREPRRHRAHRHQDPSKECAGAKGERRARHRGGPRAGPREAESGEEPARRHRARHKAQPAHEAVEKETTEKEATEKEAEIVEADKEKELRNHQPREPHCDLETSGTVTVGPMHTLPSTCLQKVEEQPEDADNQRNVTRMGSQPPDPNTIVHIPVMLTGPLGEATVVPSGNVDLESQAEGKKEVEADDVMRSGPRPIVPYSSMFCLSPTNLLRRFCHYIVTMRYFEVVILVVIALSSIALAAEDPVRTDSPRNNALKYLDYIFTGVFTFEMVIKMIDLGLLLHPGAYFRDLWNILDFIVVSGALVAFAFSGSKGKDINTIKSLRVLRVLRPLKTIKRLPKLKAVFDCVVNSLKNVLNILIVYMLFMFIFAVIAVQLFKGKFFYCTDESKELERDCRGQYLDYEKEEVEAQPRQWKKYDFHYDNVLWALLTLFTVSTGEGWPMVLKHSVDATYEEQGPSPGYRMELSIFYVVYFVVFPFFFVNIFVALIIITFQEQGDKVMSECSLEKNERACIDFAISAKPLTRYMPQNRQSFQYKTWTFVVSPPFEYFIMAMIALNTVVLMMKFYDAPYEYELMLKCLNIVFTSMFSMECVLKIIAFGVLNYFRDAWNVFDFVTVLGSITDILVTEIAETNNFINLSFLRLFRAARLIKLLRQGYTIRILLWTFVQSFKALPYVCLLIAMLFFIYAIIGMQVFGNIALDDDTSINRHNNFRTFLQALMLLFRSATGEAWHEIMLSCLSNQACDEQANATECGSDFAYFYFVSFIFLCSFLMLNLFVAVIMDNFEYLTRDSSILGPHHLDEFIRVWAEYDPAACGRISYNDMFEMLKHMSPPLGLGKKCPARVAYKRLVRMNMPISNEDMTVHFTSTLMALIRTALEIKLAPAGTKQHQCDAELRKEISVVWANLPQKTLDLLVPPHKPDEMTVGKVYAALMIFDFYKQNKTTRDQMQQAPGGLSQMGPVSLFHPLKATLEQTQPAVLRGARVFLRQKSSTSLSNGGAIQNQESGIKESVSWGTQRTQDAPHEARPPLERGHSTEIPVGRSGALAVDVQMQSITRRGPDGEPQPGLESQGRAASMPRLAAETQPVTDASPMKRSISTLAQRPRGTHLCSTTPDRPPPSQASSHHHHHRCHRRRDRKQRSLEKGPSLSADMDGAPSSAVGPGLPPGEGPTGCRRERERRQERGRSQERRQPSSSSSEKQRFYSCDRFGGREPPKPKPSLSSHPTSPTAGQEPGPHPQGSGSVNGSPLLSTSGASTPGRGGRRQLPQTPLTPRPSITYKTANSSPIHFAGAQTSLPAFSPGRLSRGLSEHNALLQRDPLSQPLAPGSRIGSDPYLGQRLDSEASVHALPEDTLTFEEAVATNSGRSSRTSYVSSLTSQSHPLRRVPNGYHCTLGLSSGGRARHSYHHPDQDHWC

SMILES | IC50 [1] [nM] | IC50 (calcium mobilization in vitro assay, N-type calcium channel blockers) [nM]
COCCOc1ccc(S(=O)(=O)N2CCC(=NOCc3cccc(C(F)(F)F)c3)CC2)cc1 [Example 94, 1-[4-(2-Methoxyethoxy)benzenesulfonyl]piperidin-4-one O-(3-trifluoromethylbenzyl)oxime] | ≤ 1000 | 
O=S(=O)(c1ccc(OCC2CC2)cc1)N1CCC(=NOCc2cccc(C(F)(F)F)c2)CC1 [Example 95, 1-(4-Cyclopropylmethoxybenzenesulfonyl)piperidin-4-one O-(3-trifluoromethylbenzyl)oxime] | ≤ 1000 | 
CCCNc1ccc(S(=O)(=O)N2CCC(=NOCc3cccc(C(F)(F)F)c3)CC2)cn1 [Example 99] | ≤ 1000 | 
O=S(=O)(c1ccc(Oc2ccccc2)nc1)N1CCC(=NOCc2cccc(C(F)(F)F)c2)CC1 [Example 101, 1-(6-Phenoxypyridine-3-sulfonyl)piperidin-4-one O-(3-trifluoromethylbenzyl)oxime] | ≤ 1000 | 
N#Cc1cc(CON=C2CCN(S(=O)(=O)c3ccc(OC(F)(F)F)cc3)CC2)ccc1F [Example 108, 2-Fluoro-5-[1-(4-trifluoromethoxybenzenesulfonyl)piperidin-4-ylideneaminooxymethyl]benzonitrile] | ≤ 1000 | 
COc1cccc(CON=C2CCN(S(=O)(=O)c3ccc(OC(F)(F)F)cc3)CC2)n1 [Example 110, 1-(4-Trifluoromethoxybenzenesulfonyl)piperidin-4-one O-(6-methoxypyridin-2-ylmethyl)oxime] | ≤ 1000 | 
COc1ncccc1CON=C1CCN(S(=O)(=O)c2ccc(OC(F)(F)F)cc2)CC1 [Example 111, 1-(4-Trifluoromethoxybenzenesulfonyl)piperidin-4-one O-(2-methoxypyridin-3-ylmethyl)oxime] | ≤ 1000 | 
O=S(=O)(c1ccc(OC(F)(F)F)cc1)N1CCC(=NOCc2cc(Cl)ccn2)CC1 [Example 118, 1-(4-Trifluoromethoxybenzenesulfonyl)piperidin-4-one O-(4-chloropyridin-2-ylmethyl)oxime] | ≤ 1000 | 
O=S(=O)(c1ccc(OC(F)(F)F)cc1)N1CCC(=NOC(c2ccc(F)cc2)c2ccc(F)cc2)CC1 [Example 119, 1-(4-Trifluoromethoxybenzenesulfonyl)piperidin-4-one O-[bis(4-fluorophenyl)methyl]oxime] | ≤ 1000 | 
N#Cc1ccccc1CON=C1CCN(S(=O)(=O)c2ccc(OC(F)(F)F)cc2)CC1 [Example 120, 2-[1-(4-Trifluoromethoxybenzenesulfonyl)piperidin-4-ylideneaminooxymethyl]benzonitrile] | ≤ 1000 | 
N#Cc1cccc(CON=C2CCN(S(=O)(=O)c3ccc(OC(F)(F)F)cc3)CC2)c1 [Example 121, 3-[1-(4-Trifluoromethoxybenzenesulfonyl)piperidin-4-ylideneaminooxymethyl]benzonitrile] | ≤ 1000 | 
O=S(=O)(c1ccc(OC(F)(F)F)cc1)N1CCC(=NOCc2ccc(Cl)cn2)CC1 [Example 127, 1-(4-Trifluoromethoxybenzenesulfonyl)piperidin-4-one O-(5-chloropyridin-2-ylmethyl)oxime] | ≤ 1000 | 
CN(C)c1cccc(CON=C2CCN(S(=O)(=O)c3ccc(OC(F)(F)F)cc3)CC2)c1 [Example 128, 1-(4-Trifluoromethoxybenzenesulfonyl)piperidin-4-one O-(3-dimethylaminobenzyl)oxime] | ≤ 1000 | 
O=[N+]([O-])c1ccc(CON=C2CCN(S(=O)(=O)c3ccc(OC(F)(F)F)cc3)CC2)cc1 [Example 134, 1-(4-Trifluoromethoxybenzenesulfonyl)piperidin-4-one O-(4-nitrobenzyl)oxime] | ≤ 1000 | 
COc1ccc(CON=C2CCN(S(=O)(=O)c3ccc(OC(F)(F)F)cc3)CC2)cn1 [Example 144, 1-(4-Trifluoromethoxybenzenesulfonyl)piperidin-4-one O-(6-methoxypyridin-3-ylmethyl)oxime] | ≤ 1000 | 
COc1cc(CON=C2CCN(S(=O)(=O)c3ccc(OC(F)(F)F)cc3)CC2)cc(Cl)n1 [Example 147, 1-(4-Trifluoromethoxybenzenesulfonyl)piperidin-4-one O-(2-chloro-6-methoxypyridin-4-ylmethyl)oxime] | ≤ 1000 | 

SMILES | IC50 [1] [nM] | IC50 (calcium mobilization in vitro assay, N-type calcium channel blockers) [nM]
Cn1c(Cl)cc(CON=C2CCN(S(=O)(=O)c3ccc(OC(F)(F)F)cc3)CC2)cc1=O [Example 152, 6-Chloro-1-methyl-4-[1-(4-trifluoromethoxybenzenesulfonyl)piperidin-4-ylideneaminooxymethyl]-1H-pyridin-2-one] | ≤ 1000 | 
Cn1c(CON=C2CCN(S(=O)(=O)c3ccc(OC(F)(F)F)cc3)CC2)nc2ccccc21 [Example 160, 1-(4-(Trifluoromethoxy)phenylsulfonyl)piperidin-4-one O-(1-methyl-1H-benzo[d]imidazol-2-yl)methyl oxime] | ≤ 1000 | 
O=S(=O)(c1ccc(OC(F)(F)F)cc1)N1CCC(=NOCc2nc3ccccc3[nH]2)CC1 [Example 162, 1-(4-(Trifluoromethoxy)phenylsulfonyl)piperidin-4-one O-(1H-benzo[d]imidazol-2-yl)methyl oxime] | ≤ 1000 | 
N#Cc1cccc(CON=C2CCN(S(=O)(=O)c3ccc(OC(F)(F)F)cc3)CC2)n1 [Example 173, 6-((1-(4-(Trifluoromethoxy)phenylsulfonyl)piperidin-4-ylideneaminooxy)methyl)picolinonitrile] | ≤ 1000 | 
N#Cc1cc(CON=C2CCN(S(=O)(=O)c3ccc(OC(F)(F)F)cc3)CC2)ccn1 [Example 177, 4-((1-(4-(Trifluoromethoxy)phenylsulfonyl)piperidin-4-ylideneaminooxy)methyl)picolinonitrile] | ≤ 1000 | 
N#Cc1ccnc(CON=C2CCN(S(=O)(=O)c3ccc(OC(F)(F)F)cc3)CC2)c1 [Example 178, 2-((1-(4-(trifluoromethoxy)phenylsulfonyl)piperidin-4-ylideneaminooxy)methyl)isonicotinonitrile] | ≤ 1000 | 
N#Cc1cc(CON=C2CCN(C(=O)CCC(c3ccc(F)cc3)c3ccc(F)cc3)CC2)ccc1F [Example 181, 5-((1-(4,4-Bis(4-fluorophenyl)butanoyl)piperidin-4-ylideneaminooxy)methyl)-2-fluorobenzonitrile] | ≤ 1000 | 
N#Cc1cccc(C(ON=C2CCN(S(=O)(=O)c3ccc(OC(F)(F)F)cc3)CC2)C2CC2)c1 (centres unmarked) [Example 186, 3-(Cyclopropyl(1-(4-(trifluoromethoxy)phenylsulfonyl)piperidin-4-ylideneaminooxy)methyl)benzonitrile] | ≤ 1000 | 
COc1cc(CON=C2CCN(S(=O)(=O)c3ccc(OC(F)(F)F)cc3)CC2)nc2ccccc12 [Example 189, 1-(4-(Trifluoromethoxy)phenylsulfonyl)piperidin-4-one O-(4-methoxyquinolin-2-yl)methyl oxime] | ≤ 1000 | 
N#Cc1cccc(C(CO)ON=C2CCN(S(=O)(=O)c3ccc(OC(F)(F)F)cc3)CC2)c1 (centres unmarked) [Example 191, 3-(2-Hydroxy-1-(1-(4-(trifluoromethoxy)phenylsulfonyl)piperidin-4-ylideneaminooxy)ethyl)benzonitrile] | ≤ 1000 | 
N#Cc1cccc(CON=C2CCN(S(=O)(=O)c3ccc(F)cc3)CC2)c1 [Example 196] | ≤ 1000 | 
N#Cc1cccc(CON=C2CCN(S(=O)(=O)c3ccc(OC(F)F)cc3)CC2)c1 [Example 197, 3-((1-(4-(Difluoromethoxy)phenylsulfonyl)piperidin-4-ylideneaminooxy)methyl)benzonitrile] | ≤ 1000 | 
N#Cc1ccc(S(=O)(=O)N2CCC(=NOCc3cccc(C#N)c3)CC2)cc1 [Example 199] | ≤ 1000 | 
N#Cc1cccc(CON=C2CCN(S(=O)(=O)c3ccc(F)c(F)c3)CC2)c1 [Example 210, 3-((1-(3,4-Difluorophenylsulfonyl)piperidin-4-ylideneaminooxy)methyl)benzonitrile] | ≤ 1000 | 
O=c1ccc(C(ON=C2CCN(S(=O)(=O)c3ccc(OC(F)(F)F)cc3)CC2)c2ccc(F)cc2)c[nH]1 (centres unmarked) [Example 214, 5-((4-Fluorophenyl)(1-(4-(trifluoromethoxy)phenylsulfonyl)piperidin-4-ylideneaminooxy)methyl)pyridin-2(1H)-one] | ≤ 1000 | 
O=C(CC(=O)N1CCC(=NOC(c2ccc(F)cc2)c2ccc(F)cc2)CC1)Nc1ccc(F)cc1F [Example 227, 3-(4-(Bis(4-fluorophenyl)methoxyimino)piperidin-1-yl)-N-(2,4-difluorophenyl)-3-oxopropanamide] |  | 1100
